Reference: US8791132B2, “Compounds and methods for treatment of hypertension” (Medivation Technologies, Inc., priority 2011, dated 2014)
Values joined by “and” are separate entries in the source; they are usually repeats but may differ in a detail not shown here. Equal values may be shown once.

Assays:
[1] = target: T1, rat adrenergic α1B receptor (Rattus norvegicus, UniProt P15823); assay: Radioligand binding, adrenergic α1B ([3H]Prazosin); settings: [3H]Prazosin, repeat assays, each datapoint shown; for Percentage inhibition of ligand binding, Adrenergic α1B / inhibition at 0.1 µM: compound at 0.1 μM; for Percentage inhibition of ligand binding, Adrenergic α1B: 0.1 µM; for inhibition at 0.03 µM: compound at 0.03 μM; for inhibition at 0.03 µM / inhibition at 0.1 µM: read-out: Percentage inhibition of ligand binding, Adrenergic α1B
T1 construct: rat adrenergic α1B receptor obtained from Wistar Rat liver; from tissue; host or cells: Wistar rat liver
T1 sequence (P15823 1-515): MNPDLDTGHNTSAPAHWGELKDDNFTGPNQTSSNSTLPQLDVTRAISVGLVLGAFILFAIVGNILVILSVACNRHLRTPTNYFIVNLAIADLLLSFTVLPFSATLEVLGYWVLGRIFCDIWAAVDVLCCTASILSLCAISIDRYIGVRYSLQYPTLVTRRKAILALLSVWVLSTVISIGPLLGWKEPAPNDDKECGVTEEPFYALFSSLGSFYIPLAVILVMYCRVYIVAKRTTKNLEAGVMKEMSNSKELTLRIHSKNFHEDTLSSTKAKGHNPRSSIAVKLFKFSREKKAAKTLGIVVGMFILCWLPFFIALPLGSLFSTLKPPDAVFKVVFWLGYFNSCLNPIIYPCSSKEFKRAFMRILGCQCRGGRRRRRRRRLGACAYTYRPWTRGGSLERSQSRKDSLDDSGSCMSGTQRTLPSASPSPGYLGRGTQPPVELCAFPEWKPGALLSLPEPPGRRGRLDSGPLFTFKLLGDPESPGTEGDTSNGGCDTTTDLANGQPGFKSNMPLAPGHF
In short: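 Rat α1B receptor from Wistar rat liver was incubated with 0.25 nM [3H]prazosin for 60 min at 25 °C in 50 mM Tris-HCl, pH 7.4, 0.5 mM EDTA. Non-specific binding was defined with 10 μM phentolamine. Bound radioligand was measured by filtration and counting, reported as percent inhibition of specific binding.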

[2] = target: T2, human recombinant adrenergic α2A receptor (Homo sapiens, UniProt P08913); assay: Radioligand binding, adrenergic α2A ([3H]MK-912); settings: for inhibition at 0.1 µM / Percentage inhibition of ligand binding, Adrenergic α2A: compound at 0.1 μM; for inhibition at 0.1 µM / Percentage inhibition of ligand binding, Adrenergic α2A / inhibition at 0.03 µM: [3H]MK-912, repeat assays, each datapoint shown; for inhibition at 0.1 µM / inhibition at 0.03 µM: read-out: Percentage inhibition of ligand binding, Adrenergic α2A; for Percentage inhibition of ligand binding, Adrenergic α2A: 0.1 µM; for inhibition at 0.03 µM: compound at 0.03 μM
T2 construct: expressed in transfected cells; host or cells: insect Sf9 cells
T2 sequence (P08913 1-465): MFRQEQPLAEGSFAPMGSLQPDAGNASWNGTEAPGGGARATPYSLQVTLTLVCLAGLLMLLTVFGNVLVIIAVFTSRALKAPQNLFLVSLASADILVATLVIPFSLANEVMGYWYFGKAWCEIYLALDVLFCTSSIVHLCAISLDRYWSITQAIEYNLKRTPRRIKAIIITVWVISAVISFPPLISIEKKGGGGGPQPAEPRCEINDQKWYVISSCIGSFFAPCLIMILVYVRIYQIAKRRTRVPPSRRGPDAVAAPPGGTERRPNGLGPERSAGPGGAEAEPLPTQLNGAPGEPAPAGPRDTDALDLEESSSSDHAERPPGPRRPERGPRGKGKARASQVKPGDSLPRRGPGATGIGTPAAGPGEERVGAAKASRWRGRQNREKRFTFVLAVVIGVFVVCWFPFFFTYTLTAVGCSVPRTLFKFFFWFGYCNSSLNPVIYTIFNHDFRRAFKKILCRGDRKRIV
In short: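 Displacement of 1 nM [3H]MK-912 from receptor produced in insect Sf9 cells was measured after 60 min at 25 °C. Readout: percent inhibition of specific binding.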

[3] = target: T3, human recombinant adrenergic α2B receptor (Homo sapiens, UniProt P18089); assay: Radioligand binding, adrenergic α2B ([3H]Rauwolscine); settings: for Percentage inhibition of ligand binding, Adrenergic α2B / inhibition at 0.03 µM: [3H]Rauwolscine, repeat assays, each datapoint shown; for Ki: read-out: Ki α2B; for inhibition at 0.03 µM: read-out: Percentage inhibition of ligand binding, Adrenergic α2B
T3 construct: expressed in transfected cells; host or cells: CHO-K1
T3 sequence (P18089 1-450): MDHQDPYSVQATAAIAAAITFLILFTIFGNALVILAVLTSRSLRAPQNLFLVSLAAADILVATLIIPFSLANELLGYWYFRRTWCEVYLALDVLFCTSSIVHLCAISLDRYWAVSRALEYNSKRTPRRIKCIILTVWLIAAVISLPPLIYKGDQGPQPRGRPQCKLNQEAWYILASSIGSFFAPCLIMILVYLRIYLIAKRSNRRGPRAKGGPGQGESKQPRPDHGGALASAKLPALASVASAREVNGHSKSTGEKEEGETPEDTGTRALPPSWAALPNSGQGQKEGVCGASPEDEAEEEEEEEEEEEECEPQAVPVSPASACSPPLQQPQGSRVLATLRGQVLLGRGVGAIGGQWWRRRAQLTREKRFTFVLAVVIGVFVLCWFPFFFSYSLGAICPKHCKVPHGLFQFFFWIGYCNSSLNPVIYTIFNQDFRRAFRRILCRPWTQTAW
In short: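 Values are percent inhibition of specific radioligand binding. The receptor, expressed in CHO-K1 cells, was exposed to 2.5 nM [3H]Rauwolscine at 25° C for 60 min, with 10 μM Prazosin marking non-specific binding.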

| SMILES | Percentage inhibition of ligand binding, Adrenergic α1B [1] | Ki [2] [µM] | Percentage inhibition of ligand binding, Adrenergic α2B ([3]; compound at 0.03 μM, 0.03 µM) | Percentage inhibition of ligand binding, Adrenergic α2B ([3]; compound at 0.1 μM, 0.1 µM) [%] | Ki [3] [µM] | inhibition at 0.1 µM [2] [%] | Percentage inhibition of ligand binding, Adrenergic α2A [2] [%] | inhibition at 0.03 µM [1] [%] | inhibition at 0.1 µM [1] [%] | inhibition at 0.03 µM [2] [%] | inhibition at 0.03 µM ([3]; compound at 0.03 μM) [%] |
| --- | --- | --- | --- | --- | --- | --- | --- | --- | --- | --- | --- |
| Cc1ccc2c(c1)c1c(n2CC(N)c2ccncc2)CCN(C)C1 (single isomer, unassigned) [27b, 2-(1,2,3,4-tetrahydro-2,8-dimethylpyrido[4,3-b]indol-5-yl)-1-(pyridin-4-yl)ethanamine] | 6% and 16% | 3.71 | 30% and 36% | 48 | 0.0434 | – | – | – | – | – | – |
| CN1CCc2c(n(CC(C)(O)c3cccnc3)c3ccc(Cl)cc23)C1 (single isomer, unassigned) [28a] | 41% | – | 96% | – | – | 28 | – | – | – | – | – |
| CN1CCc2c(n(CC(C)(O)c3cccnc3)c3ccc(Cl)cc23)C1 (single isomer, unassigned) [28b] | 20% | – | 37% | – | – | – | 24 | – | – | – | – |
| Cc1ccc2c(c1)c1c(n2CC(C)(O)c2ccc(C)nc2)CCN(C)C1 (single isomer, unassigned) [29a] | 38% | 0.0772 | 100% | – | 0.00109 | 35 | 39 | 19 | 32 | 16 | 98 |
| Cc1ccc2c(c1)c1c(n2CC(O)c2ccc(F)cc2)CCN(C)C1 (single isomer, unassigned) [30b] | 91% | 0.0142 | 102% | – | 0.00113 | 74 | 75 | 68 | 89 | 42 | 100 |
| CN1CCc2c(c3cc(Cl)ccc3n2CC(C)(O)c2cccnc2)C1 (single isomer, unassigned) [31a] | 28% | 0.167 | 97% | – | 0.00158 | 19 | 27 | 16 | 25 | 11 | 93 |
| CCC1c2c(c3cc(C)ccc3n2CC(O)c2ccncc2)C2CCN1C2 (single isomer, unassigned) [36a] | – | – | 33% | – | – | – | 8 | – | 14 | – | – |
| CCC1c2c(c3cc(C)ccc3n2CC(O)c2ccncc2)C2CCN1C2 (single isomer, unassigned) [36b] | 11% | – | −1% | – | – | – | 0 | – | – | – | – |
| OC(Cn1c2c(c3cccnc31)CN1CCCC1C2)c1ccncc1 (single isomer, unassigned) [37a] | −5% | – | 2% | – | – | – | 18 | – | – | – | – |
| OC(Cn1c2c(c3cccnc31)CN1CCCC1C2)c1ccncc1 (single isomer, unassigned) [37b] | −10% | – | −3% | – | – | – | −20 | – | – | – | – |
| OC(Cn1c2c(c3cccnc31)CN1CCCC1C2)c1ccncc1 (single isomer, unassigned) [37c] | 2% | – | 0% | – | – | – | 6 | – | – | – | – |
| OC(Cn1c2c(c3cccnc31)CN1CCCC1C2)c1ccncc1 (single isomer, unassigned) [37d] | 2% | – | −3% | – | – | – | 8 | – | – | – | – |
| Cc1ccc2c(c1)c1c(n2CC(O)c2ccncc2)C(C)N2CCC1C2 (single isomer, unassigned) [38a] | 11% | – | 35% | – | – | – | 14 | – | – | – | – |
| Cc1ccc2c(c1)c1c(n2CC(O)c2ccncc2)C(C)N2CCC1C2 (single isomer, unassigned) [38b] | 20% | – | 17% | – | – | – | −1 | – | – | – | – |
| Cc1ccc2c(c1)c1c(n2CC(O)c2ccncc2)CCNC1 (single isomer, unassigned) [39b, 2-(8-methyl-1,2,3,4-tetrahydro-pyrido[4,3-b]indol-5-yl)-1-pyridin-4-yl-ethanol] | – | – | 28% | – | – | 1 | – | – | 24 | – | – |
| CN1CCc2c(c3ccc(C(F)(F)F)cc3n2CC(O)c2cccnc2)C1 (single isomer, unassigned) [40a] | 2% | – | – | – | – | 7 | – | – | – | – | 27 |
| CN1CCc2c(c3ccc(C(F)(F)F)cc3n2CC(O)c2cccnc2)C1 (single isomer, unassigned) [40b] | −2% | – | 29% | – | – | – | 13 | – | – | – | – |
| CN1CCc2c(n(CC(O)c3ccncc3)c3ccc(Cl)cc23)C1 (single isomer, unassigned) [41b] | 50% | – | 50% | – | – | – | 8 | – | – | – | – |
| CC(O)(Cn1c2c(c3cc(Cl)ccc31)CNCC2)c1ccncn1 (single isomer, unassigned) [42a, 1-(8-chloro-1,2,3,4-tetrahydro-pyrido[4,3-b]indol-5-yl)-2-pyrimidin-4-yl-propan-2-ol] | – | – | – | – | – | – | 3 | – | 15 | – | 29 |
| CC(O)(Cn1c2c(c3cc(Cl)ccc31)CNCC2)c1ccncn1 (single isomer, unassigned) [42b, 1-(8-chloro-1,2,3,4-tetrahydro-pyrido[4,3-b]indol-5-yl)-2-pyrimidin-4-yl-propan-2-ol] | 19% | – | 34% | – | – | – | 12 | – | – | – | – |
